Data reported in ChEMBL document CHEMBL4138146, “A Schmidt rearrangement-mediated synthesis of novel tetrahydro-benzo[1,4]diazepin-5-ones as potential anticancer and antiprotozoal agents” (Eur J Med Chem, 2017).

Key:
Type in all cases: functional
PC-3 = experiment: Growth inhibition of human PC3 cells assessed as cell growth at 10 uM incubated for 48 hrs by sulforhodamine B assay relative to control; conditions: PC-3, 48 h, read-out: Activity
SW-620 = experiment: Growth inhibition of human SW620 cells assessed as cell growth at 10 uM incubated for 48 hrs by sulforhodamine B assay relative to control; conditions: SW-620, 48 h, read-out: Activity
SK-MEL-2 = experiment: Growth inhibition of human SK-MEL-2 cells assessed as cell growth at 10 uM incubated for 48 hrs by sulforhodamine B assay relative to control; conditions: SK-MEL-2, 48 h, read-out: Activity
OVCAR-4 = experiment: Growth inhibition of human OVCAR4 cells assessed as cell growth at 10 uM incubated for 48 hrs by sulforhodamine B assay relative to control; conditions: OVCAR-4, 48 h, read-out: Activity
OVCAR-8 = experiment: Growth inhibition of human OVCAR8 cells assessed as cell growth at 10 uM incubated for 48 hrs by sulforhodamine B assay relative to control; conditions: OVCAR-8, 48 h, read-out: Activity
NCI-H522 = experiment: Growth inhibition of human NCI-H522 cells assessed as cell growth at 10 uM incubated for 48 hrs by sulforhodamine B assay relative to control; conditions: NCI-H522, 48 h, read-out: Activity
OVCAR-3 = experiment: Growth inhibition of human OVCAR3 cells assessed as cell growth at 10 uM incubated for 48 hrs by sulforhodamine B assay relative to control; conditions: OVCAR-3, 48 h, read-out: Activity
SNB-19 = experiment: Growth inhibition of human SNB19 cells assessed as cell growth at 10 uM incubated for 48 hrs by sulforhodamine B assay relative to control; conditions: SNB-19, 48 h, read-out: Activity
U-251 = experiment: Growth inhibition of human U251 cells assessed as cell growth at 10 uM incubated for 48 hrs by sulforhodamine B assay relative to control; conditions: U-251, 48 h, read-out: Activity
MDA-MB-231 = experiment: Growth inhibition of human MDA-MB-231 cells assessed as cell growth at 10 uM incubated for 48 hrs by sulforhodamine B assay relative to control; conditions: MDA-MB-231, 48 h, read-out: Activity
CCRF-CEM = experiment: Growth inhibition of human CCRF-CEM cells assessed as cell growth at 10 uM incubated for 48 hrs by sulforhodamine B assay relative to control; conditions: read-out: Activity
SNB-75 = experiment: Growth inhibition of human SNB75 cells assessed as cell growth at 10 uM incubated for 48 hrs by sulforhodamine B assay relative to control; conditions: SNB-75, 48 h, read-out: Activity
NCI/ADR-RES = experiment: Growth inhibition of human NCI/ADR-RES cells assessed as cell growth at 10 uM incubated for 48 hrs by sulforhodamine B assay relative to control; conditions: read-out: Activity
UO-31 = experiment: Growth inhibition of human UO31 cells assessed as cell growth at 10 uM incubated for 48 hrs by sulforhodamine B assay relative to control; conditions: UO-31, 48 h, read-out: Activity
A549 = experiment: Growth inhibition of human A549/ATCC cells assessed as cell growth at 10 uM incubated for 48 hrs by sulforhodamine B assay relative to control; conditions: A549, 48 h, read-out: Activity
A498 = experiment: Growth inhibition of human A498 cells assessed as cell growth at 10 uM incubated for 48 hrs by sulforhodamine B assay relative to control; conditions: A498, 48 h, read-out: Activity
HT-29 = experiment: Growth inhibition of human HT-29 cells assessed as cell growth at 10 uM incubated for 48 hrs by sulforhodamine B assay relative to control; conditions: HT-29, 48 h, read-out: Activity
Hs-578T = experiment: Growth inhibition of human Hs 578T cells assessed as cell growth at 10 uM incubated for 48 hrs by sulforhodamine B assay relative to control; conditions: read-out: Activity
OVCAR-5 = experiment: Growth inhibition of human OVCAR5 cells assessed as cell growth at 10 uM incubated for 48 hrs by sulforhodamine B assay relative to control; conditions: OVCAR-5, 48 h, read-out: Activity
HOP-92 = experiment: Growth inhibition of human HOP92 cells assessed as cell growth at 10 uM incubated for 48 hrs by sulforhodamine B assay relative to control; conditions: HOP-92, 48 h, read-out: Activity
MDA-MB-435 = experiment: Growth inhibition of human MDA-MB-435 cells assessed as cell growth at 10 uM incubated for 48 hrs by sulforhodamine B assay relative to control; conditions: MDA-MB-435, 48 h, read-out: Activity
KM12 = experiment: Growth inhibition of human KM12 cells assessed as cell growth at 10 uM incubated for 48 hrs by sulforhodamine B assay relative to control; conditions: KM12, 48 h, read-out: Activity
NCI-H460 = experiment: Growth inhibition of human NCI-H460 cells assessed as cell growth at 10 uM incubated for 48 hrs by sulforhodamine B assay relative to control; conditions: NCI-H460, 48 h, read-out: Activity
HOP-62 = experiment: Growth inhibition of human HOP62 cells assessed as cell growth at 10 uM incubated for 48 hrs by sulforhodamine B assay relative to control; conditions: HOP-62, 48 h, read-out: Activity
LOX IMVI = experiment: Growth inhibition of human LOXIMVI cells assessed as cell growth at 10 uM incubated for 48 hrs by sulforhodamine B assay relative to control; conditions: read-out: Activity
SK-OV-3 = experiment: Growth inhibition of human SKOV3 cells assessed as cell growth at 10 uM incubated for 48 hrs by sulforhodamine B assay relative to control; conditions: SK-OV-3, 48 h, read-out: Activity
ACHN = experiment: Growth inhibition of human ACHN cells assessed as cell growth at 10 uM incubated for 48 hrs by sulforhodamine B assay relative to control; conditions: read-out: Activity
HCT-116 = experiment: Growth inhibition of human HCT116 cells assessed as cell growth at 10 uM incubated for 48 hrs by sulforhodamine B assay relative to control; conditions: HCT-116, 48 h, read-out: Activity
T47D = experiment: Growth inhibition of human T47D cells assessed as cell growth at 10 uM incubated for 48 hrs by sulforhodamine B assay relative to control; conditions: read-out: Activity
MDA-MB-468 = experiment: Growth inhibition of human MDA-MB-468 cells assessed as cell growth at 10 uM incubated for 48 hrs by sulforhodamine B assay relative to control; conditions: MDA-MB-468, 48 h, read-out: Activity
786-0 = experiment: Growth inhibition of human 786-0 cells assessed as cell growth at 10 uM incubated for 48 hrs by sulforhodamine B assay relative to control; conditions: 786-0, 48 h, read-out: Activity
SK-MEL-28 = experiment: Growth inhibition of human SK-MEL-28 cells assessed as cell growth at 10 uM incubated for 48 hrs by sulforhodamine B assay relative to control; conditions: SK-MEL-28, 48 h, read-out: Activity
Malme-3M = experiment: Growth inhibition of human MALME-3M cells assessed as cell growth at 10 uM incubated for 48 hrs by sulforhodamine B assay relative to control; conditions: read-out: Activity

| Structure (SMILES) | growth at 10 µM (PC-3) | growth at 10 µM (SW-620) | growth at 10 µM (SK-MEL-2) | growth at 10 µM (OVCAR-4) | growth at 10 µM (OVCAR-8) | growth at 10 µM (NCI-H522) | growth at 10 µM (OVCAR-3) | growth at 10 µM (SNB-19) | growth at 10 µM (U-251) | growth at 10 µM (MDA-MB-231) | growth at 10 µM (CCRF-CEM) | growth at 10 µM (SNB-75) | growth at 10 µM (NCI/ADR-RES) | growth at 10 µM (UO-31) | growth at 10 µM (A549) | growth at 10 µM (A498) | growth at 10 µM (HT-29) | growth at 10 µM (Hs-578T) | growth at 10 µM (OVCAR-5) | growth at 10 µM (HOP-92) | further results |
| --- | --- | --- | --- | --- | --- | --- | --- | --- | --- | --- | --- | --- | --- | --- | --- | --- | --- | --- | --- | --- | --- |
| CCCCOc1nc2ccc(OC)cc2cc1C1CNC(=O)c2ccccc2N1 (configuration not stated) | 86.6% | 97.6% | 88.7% | 99.3% | 102% | 77.4% | 101% | 105% | 106% | 83.6% | 106% | 89.5% | 109% | 78.1% | 86.4% | 88.5% | 100% | 105% | 107% | 90.4% | growth at 10 µM (MDA-MB-435): 104%; growth at 10 µM (KM12): 96.6%; growth at 10 µM (NCI-H460): 97.2%; growth at 10 µM (HOP-62): 96%; growth at 10 µM (LOX IMVI): 104%; growth at 10 µM (SK-OV-3): 89.3%; growth at 10 µM (ACHN): 97.3%; growth at 10 µM (HCT-116): 85.3%; growth at 10 µM (T47D): 94.1%; growth at 10 µM (MDA-MB-468): 96.8%; growth at 10 µM (786-0): 96.6%; growth at 10 µM (SK-MEL-28): 102%; growth at 10 µM (Malme-3M): 123% |
| CCCCOc1nc2ccccc2cc1C1CNC(=O)c2ccccc2N1 (configuration not stated) | 24.7% | 20.9% | 15.7% | 47.7% | 22.4% | -13.6% | -9.73% | 33.4% | 18.6% | 47.5% | 12.6% | 3.14% | 3.84% | 41.3% | 19.9% | -11.2% | 0.87% | 34.1% | 55.3% | 48.9% | growth at 10 µM (MDA-MB-435): -63.8%; growth at 10 µM (KM12): 23.9%; growth at 10 µM (NCI-H460): 6.89%; growth at 10 µM (HOP-62): 23%; growth at 10 µM (LOX IMVI): 27.1%; growth at 10 µM (SK-OV-3): 14.8%; growth at 10 µM (ACHN): 46.7%; growth at 10 µM (HCT-116): 15.6%; growth at 10 µM (T47D): 20.9%; growth at 10 µM (MDA-MB-468): -1.81%; growth at 10 µM (786-0): 26.2%; growth at 10 µM (SK-MEL-28): 45.8%; growth at 10 µM (Malme-3M): 45.6% |
| O=C1NCC(c2cc3ccc(Cl)cc3[nH]c2=O)Nc2ccccc21 (configuration not stated) | 87.1% | 107% | 103% | 94% | 97.8% | 63.8% | 109% | 108% | 88.9% | 118% | 134% | 84.3% | 99.4% | 88.7% | 73.9% | 112% | 72.2% | 113% | 97.7% | 74% | growth at 10 µM (MDA-MB-435): 104%; growth at 10 µM (KM12): 103%; growth at 10 µM (NCI-H460): 104%; growth at 10 µM (HOP-62): 81.3%; growth at 10 µM (LOX IMVI): 96.3%; growth at 10 µM (SK-OV-3): 77.8%; growth at 10 µM (ACHN): 101%; growth at 10 µM (HCT-116): 87.8%; growth at 10 µM (T47D): 66.5%; growth at 10 µM (MDA-MB-468): 96.5%; growth at 10 µM (786-0): 99.7%; growth at 10 µM (SK-MEL-28): 105%; growth at 10 µM (Malme-3M): 93.4% |
| CCCCOc1nc2c(C)cccc2cc1C1CNC(=O)c2ccccc2N1 (configuration not stated) | 40.1% | 42.3% | 62.9% | 71.7% | 81.2% | 44.8% | 20% | 47% | 63.7% | 65.3% | 34.3% | 56.6% | 51.3% | 67.8% | 60% | 55.3% | 61.4% | 69.7% | 112% | 62.6% | growth at 10 µM (MDA-MB-435): 4.51%; growth at 10 µM (KM12): 56.4%; growth at 10 µM (NCI-H460): 56.2%; growth at 10 µM (HOP-62): 56.2%; growth at 10 µM (LOX IMVI): 60.8%; growth at 10 µM (SK-OV-3): 69.2%; growth at 10 µM (ACHN): 66.3%; growth at 10 µM (HCT-116): 45.9%; growth at 10 µM (T47D): 58.4%; growth at 10 µM (MDA-MB-468): 51.6%; growth at 10 µM (786-0): 46.2%; growth at 10 µM (SK-MEL-28): 66.4%; growth at 10 µM (Malme-3M): 86.1% |
